{"source": "patent US9403830B2", "about": "“Inhibitors of leukotriene production” (Boehringer Ingelheim International GmbH, priority 2012, dated 2016)", "key": {"human LTA4 hydrolase": {"molecular_target": "T1, human LTA4 hydrolase (Homo sapiens, UniProt P09960)", "T1 sequence (P09960 1-611)": "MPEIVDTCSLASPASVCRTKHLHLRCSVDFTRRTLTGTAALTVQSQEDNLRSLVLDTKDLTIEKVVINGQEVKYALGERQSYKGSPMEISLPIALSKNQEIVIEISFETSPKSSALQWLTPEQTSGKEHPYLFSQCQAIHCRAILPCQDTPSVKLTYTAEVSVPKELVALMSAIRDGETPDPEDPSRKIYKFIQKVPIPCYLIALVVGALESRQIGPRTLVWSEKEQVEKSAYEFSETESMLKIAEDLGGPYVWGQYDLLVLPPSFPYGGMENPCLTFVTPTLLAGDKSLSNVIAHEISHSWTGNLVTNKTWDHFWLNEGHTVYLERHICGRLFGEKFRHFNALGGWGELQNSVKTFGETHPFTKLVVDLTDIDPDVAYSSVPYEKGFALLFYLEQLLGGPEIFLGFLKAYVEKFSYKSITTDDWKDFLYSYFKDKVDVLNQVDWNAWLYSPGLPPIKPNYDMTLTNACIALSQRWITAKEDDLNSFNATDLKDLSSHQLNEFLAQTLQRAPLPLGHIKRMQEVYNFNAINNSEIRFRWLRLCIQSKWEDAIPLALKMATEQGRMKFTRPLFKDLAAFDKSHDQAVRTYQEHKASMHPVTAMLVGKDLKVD", "experiment": "LTA4H Enzyme assay (peptidase, Arg-AMC cleavage)", "format": "biochemical", "conditions": "LTA4H enzyme 1 nM, Arg-AMC substrate 50 μM, room temperature 1 h, fluorescence 380/460 nm", "outline": "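Human LTA4H (1 nM final) incubated with compound and Arg-AMC (50 μM final) in 50 mM Tris-HCl pH 7.5, 100 mM KCl, 0.5% BSA, 1 h at room temperature. Product read as AMC fluorescence (ex 380/em 460 nm); IC50 reported.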"}, "[1]": {"system": "LTB4 synthesis in human whole blood", "experiment": "human whole blood (HWB) assay, inhibition of LTB4 production", "format": "cell-based", "conditions": "heparinized human whole blood, calcimycin 20 μM stimulation, plasma LTB4", "outline": "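Plasma LTB4, quantified by HTRF immunoassay, is the read-out after calcimycin challenge (20 μM final, 30 min, 37 °C) of heparinized whole blood that had been pretreated with compound for 15 min at 37 °C; values given as IC50.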"}}, "note": "pIC50: −log10 of the molar value.", "data": [{"smiles": "CC(=O)N1CCCN(CCC2COc3cc(Oc4ccc(-c5ccn[nH]5)cn4)ccc32)CC1", "note": "(stereo not shown) [Example 135, 1-[4-(2-{6-[5-(2H-Pyrazol-3-yl)-pyridin-2-yloxy]-2,3-dihydro-benzofuran-3-yl}-ethyl)-[1,4]diazepan-1-yl]-ethanone]", "values": [{"measurement": "pIC50", "setting": "human LTA4 hydrolase", "value": 9.25}, {"measurement": "pIC50", "setting": "[1]", "value": 6.74}]}, {"smiles": "CC(=O)N1CCN(CCc2coc3cc(Oc4ccc(-c5ccn[nH]5)cn4)ccc23)CC1", "note": "[Example 136, 1-[4-(2-{6-[5-(2H-Pyrazol-3-yl)-pyridin-2-yloxy]-benzofuran-3-yl}-ethyl)-piperazin-1-yl]-ethanone]", "values": [{"measurement": "pIC50", "setting": "human LTA4 hydrolase", "value": 9.20}, {"measurement": "pIC50", "setting": "[1]", "value": 6.72}]}, {"smiles": "CNC(=O)C1CCN(CC2Cc3ccc(Oc4ccc(-c5ccn[nH]5)cc4)cc3O2)CC1", "note": "(stereo not shown) [Example 137, 1-{6-[4-(2H-Pyrazol-3-yl)-phenoxy]-2,3-dihydro-benzofuran-2-ylmethyl}-piperidine-4-carboxylic acid methylamide]", "values": [{"measurement": "pIC50", "setting": "human LTA4 hydrolase", "value": 9.24}, {"measurement": "pIC50", "setting": "[1]", "value": 6.72}]}, {"smiles": "CNC(=O)C1CCN(CCc2coc3cc(Oc4ccc(-c5ccn[nH]5)cn4)ccc23)CC1", "note": "[Example 138, 1-(2-{6-[5-(2H-Pyrazol-3-yl)-pyridin-2-yloxy]-benzofuran-3-yl}-ethyl)-piperidine-4-carboxylic acid methylamide]", "values": [{"measurement": "pIC50", "setting": "human LTA4 hydrolase", "value": 9.41}, {"measurement": "pIC50", "setting": "[1]", "value": 6.72}]}, {"smiles": "O=C(CO)N1C[C@@H]2C[C@H]1CN2Cc1ccc2cc(Oc3ccc(-c4ccn[nH]4)cn3)ccc2n1", "note": "[Example 139, 2-Hydroxy-1-((1S,4S)-5-{6-[5-(2H-pyrazol-3-yl)-pyridin-2-yloxy]-quinolin-2-ylmethyl}-2,5-diaza-bicyclo[2.2.1]hept-2-yl)-ethanone]", "values": [{"measurement": "pIC50", "setting": "human LTA4 hydrolase", "value": 9.41}, {"measurement": "pIC50", "setting": "[1]", "value": 6.70}]}, {"smiles": "O=C(CO)N1CCCN(Cc2ccc3cc(Oc4ccc(-c5ccn[nH]5)cn4)ccc3n2)CC1", "note": "[Example 140, 2-Hydroxy-1-(4-{6-[5-(2H-pyrazol-3-yl)-pyridin-2-yloxy]-quinolin-2-ylmethyl}-[1,4]diazepan-1-yl)-ethanone]", "values": [{"measurement": "pIC50", "setting": "human LTA4 hydrolase", "value": 9.03}, {"measurement": "pIC50", "setting": "[1]", "value": 6.70}]}, {"smiles": "CS(=O)(=O)NC1CCN(CCc2coc3cc(Oc4ccc(-c5ccn[nH]5)cn4)ccc23)CC1", "note": "[Example 141, N-[1-(2-{6-[5-(2H-Pyrazol-3-yl)-pyridin-2-yloxy]-benzofuran-3-yl}-ethyl)-piperidin-4-yl]-methanesulfonamide]", "values": [{"measurement": "pIC50", "setting": "human LTA4 hydrolase", "value": 9.46}, {"measurement": "pIC50", "setting": "[1]", "value": 6.70}]}, {"smiles": "CC(=O)N[C@@H]1C[C@H]2CC[C@@H](C1)N2CC1Cc2ccc(Oc3ccc(-c4ccn[nH]4)cc3)cc2O1", "note": "(stereo partly drawn) [Example 142, N-((exo)-8-{6-[4-(2H-Pyrazol-3-yl)-phenoxy]-2,3-dihydro-benzofuran-2-ylmethyl}-8-aza-bicyclo[3.2.1]oct-3-yl)-acetamide]", "values": [{"measurement": "pIC50", "setting": "human LTA4 hydrolase", "value": 9.60}, {"measurement": "pIC50", "setting": "[1]", "value": 6.68}]}, {"smiles": "CC(=O)N1CCN(CCC2COc3cc(Oc4ccc(-c5ccn[nH]5)cn4)ccc32)CC1", "note": "(stereo not shown) [Example 143, 1-[4-(2-{6-[5-(2H-Pyrazol-3-yl)-pyridin-2-yloxy]-2,3-dihydro-benzofuran-3-yl}-ethyl)-piperazin-1-yl]-ethanone]", "values": [{"measurement": "pIC50", "setting": "human LTA4 hydrolase", "value": 9.07}, {"measurement": "pIC50", "setting": "[1]", "value": 6.64}]}, {"smiles": "NC(=O)C1CCN(CC2Cc3ccc(Oc4ccc(-c5ccn[nH]5)cc4)cc3O2)CC1", "note": "(stereo not shown) [Example 144, 1-{6-[4-(2H-Pyrazol-3-yl)-phenoxy]-2,3-dihydro-benzofuran-2-ylmethyl}-piperidine-4-carboxylic acid amide]", "values": [{"measurement": "pIC50", "setting": "human LTA4 hydrolase", "value": 9.19}, {"measurement": "pIC50", "setting": "[1]", "value": 6.59}]}, {"smiles": "O=C(CO)N1C[C@H]2C[C@@H]1CN2Cc1ccc2cc(Oc3ccc(-c4ccn[nH]4)cn3)ccc2n1", "note": "[Example 145, 2-Hydroxy-1-((1R,4R)-5-{6-[5-(2H-pyrazol-3-yl)-pyridin-2-yloxy]-quinolin-2-ylmethyl}-2,5-diaza-bicyclo[2.2.1]hept-2-yl)-ethanone]", "values": [{"measurement": "pIC50", "setting": "human LTA4 hydrolase", "value": 9.40}, {"measurement": "pIC50", "setting": "[1]", "value": 6.68}]}, {"smiles": "O=C(CO)N1CC2CCC1CN2Cc1ccc2cc(Oc3ccc(-c4ccn[nH]4)cn3)ccc2n1", "note": "(stereo not shown) [Example 146, 2-Hydroxy-1-(5-{6-[5-(2H-pyrazol-3-yl)-pyridin-2-yloxy]-quinolin-2-ylmethyl}-2,5-diaza-bicyclo[2.2.2]oct-2-yl)-ethanone]", "values": [{"measurement": "pIC50", "setting": "human LTA4 hydrolase", "value": 9.43}, {"measurement": "pIC50", "setting": "[1]", "value": 6.80}]}, {"smiles": "CC(=O)N1C[C@H]2C[C@@H]1CN2Cc1ccc2cc(Oc3ccc(-c4ccn[nH]4)cn3)ccc2n1", "note": "[Example 147, 1-((1R,4R)-5-{6-[5-(2H-Pyrazol-3-yl)-pyridin-2-yloxy]-quinolin-2-ylmethyl}-2,5-diaza-bicyclo[2.2.1]hept-2-yl)-ethanone]", "values": [{"measurement": "pIC50", "setting": "human LTA4 hydrolase", "value": 9.32}, {"measurement": "pIC50", "setting": "[1]", "value": 6.80}]}, {"smiles": "CC(=O)N1CC2CCC1CN2Cc1ccc2cc(Oc3ccc(-c4ccn[nH]4)cn3)ccc2n1", "note": "(stereo not shown) [Example 148, 1-(5-{6-[5-(2H-Pyrazol-3-yl)-pyridin-2-yloxy]-quinolin-2-ylmethyl}-2,5-diaza-bicyclo[2.2.2]oct-2-yl)-ethanone]", "values": [{"measurement": "pIC50", "setting": "human LTA4 hydrolase", "value": 9.34}, {"measurement": "pIC50", "setting": "[1]", "value": 6.82}]}, {"smiles": "CC(=O)N1CCN(Cc2coc3cc(Oc4ccc(-c5ccn[nH]5)cn4)ccc23)CC1", "note": "[Example 149, 1-(4-{6-[5-(2H-Pyrazol-3-yl)-pyridin-2-yloxy]-benzofuran-3-ylmethyl}-piperazin-1-yl)-ethanone]", "values": [{"measurement": "pIC50", "setting": "human LTA4 hydrolase", "value": 8.92}, {"measurement": "pIC50", "setting": "[1]", "value": 6.60}]}, {"smiles": "COC(=O)c1ccc(CN2C[C@@H]3C[C@H]2CN3Cc2nc3cc(Oc4ccc(-c5ccn[nH]5)cc4)ccc3[nH]2)cc1", "note": "[Example 150, 4-((1S,4S)-5-{5-[4-(2H-Pyrazol-3-yl)-phenoxy]-1H-benzoimidazol-2-ylmethyl}-2,5-diaza-bicyclo[2.2.1]hept-2-ylmethyl)-benzoic acid methyl ester]", "values": [{"measurement": "pIC50", "setting": "human LTA4 hydrolase", "value": 9.49}, {"measurement": "pIC50", "setting": "[1]", "value": 6.52}]}, {"smiles": "COC(=O)c1ccc(C2CCN(Cc3nc4cc(Oc5ccc(-c6ccn[nH]6)cc5)ccc4[nH]3)CC2)cc1", "note": "[Example 151, 4-(1-{5-[4-(2H-Pyrazol-3-yl)-phenoxy]-1H-benzoimidazol-2-ylmethyl}-piperidin-4-yl)-benzoic acid methyl ester]", "values": [{"measurement": "pIC50", "setting": "human LTA4 hydrolase", "value": 9.40}, {"measurement": "pIC50", "setting": "[1]", "value": 6.51}]}, {"smiles": "CCN(CC)Cc1nc2cc(Oc3ccc(-c4ccn[nH]4)cc3)ccc2[nH]1", "note": "[Example 152, Diethyl-{5-[4-(2H-pyrazol-3-yl)-phenoxy]-1H-benzoimidazol-2-ylmethyl}-amine]", "values": [{"measurement": "pIC50", "setting": "human LTA4 hydrolase", "value": 10.00}, {"measurement": "pIC50", "setting": "[1]", "value": 7.15}]}, {"smiles": "CC1CCN(Cc2nc3cc(Oc4ccc(-c5ccn[nH]5)cc4)ccc3[nH]2)CC1", "note": "[Example 153, 2-(4-Methyl-piperidin-1-ylmethyl)-5-[4-(2H-pyrazol-3-yl)-phenoxy]-1H-benzoimidazole]", "values": [{"measurement": "pIC50", "setting": "human LTA4 hydrolase", "value": 9.77}, {"measurement": "pIC50", "setting": "[1]", "value": 7.05}]}, {"smiles": "CCN(C)CCn1cc2cc(Oc3ccc(-c4ccn[nH]4)cc3)ccc2n1", "note": "[Example 154, Ethyl-methyl-(2-{5-[4-(2H-pyrazol-3-yl)-phenoxy]-indazol-2-yl}-ethyl)-amine]", "values": [{"measurement": "pIC50", "setting": "human LTA4 hydrolase", "value": 9.72}, {"measurement": "pIC50", "setting": "[1]", "value": 7.02}]}, {"smiles": "CCN(CCOC)Cc1nc2cc(Oc3ccc(-c4ccn[nH]4)cc3)ccc2[nH]1", "note": "[Example 155, Ethyl-(2-methoxy-ethyl)-{5-[4-(2H-pyrazol-3-yl)-phenoxy]-1H-benzoimidazol-2-ylmethyl}-amine]", "values": [{"measurement": "pIC50", "setting": "human LTA4 hydrolase", "value": 9.74}, {"measurement": "pIC50", "setting": "[1]", "value": 7.02}]}, {"smiles": "COCC1CCCN(Cc2nc3cc(Oc4ccc(-c5ccn[nH]5)cc4)ccc3[nH]2)C1", "note": "(stereo not shown) [Example 156, 2-(3-Methoxymethyl-piperidin-1-ylmethyl)-5-[4-(2H-pyrazol-3-yl)-phenoxy]-1H-benzoimidazole]", "values": [{"measurement": "pIC50", "setting": "human LTA4 hydrolase", "value": 9.66}, {"measurement": "pIC50", "setting": "[1]", "value": 7.02}]}, {"smiles": "COC1CCN(Cc2nc3cc(Oc4ccc(-c5ccn[nH]5)cc4)ccc3[nH]2)C1", "note": "(stereo not shown) [Example 157, 2-(3-Methoxy-pyrrolidin-1-ylmethyl)-5-[4-(2H-pyrazol-3-yl)-phenoxy]-1H-benzoimidazole]", "values": [{"measurement": "pIC50", "setting": "human LTA4 hydrolase", "value": 9.96}, {"measurement": "pIC50", "setting": "[1]", "value": 7.01}]}]}
